Data taken from patent US12653818B2, “Pharmaceutical compositions comprising nitroxoline lysinate, preparation method therefor and use thereof” (Jiangsu Yahong Meditech Co., Ltd., priority 2020, dated 2026).

Experiments:
[1] = Saturated solubility of the main drug in different media; type: physicochemical; conditions: for solubility at 72 h: thermodynamic from solid, 37° C.
Description: The solubility of the main drug (5-nitro-8-hydroxyquinoline L-lysinate monohydrate) is greatly affected by pH. In order to select a suitable dissolution medium to achieve the sink condition, the saturated solubility of the main drug in water, pH 1.0 hydrochloric acid solution, pH 4.0 buffer (solution A: water was added to 21 g of citric acid or 19.2 g of anhydrous citric acid to obtain a 1000 mL solution, which was then stored in a refrigerator; solution B: water was added to 71.63 g of disodium hydrogen phosphate to obtain a 1000 mL solution; 61.45 mL of solution A and 38.55 mL of solution B were mixed and shaked well to obtain the pH 4.0 buffer) and pH 6.8 PBS buffer (118 mL of 0.2 mol/L sodium hydroxide solution was added to 250 mL of 0.2 mol/L phosphoric acid solution, the resulting solution was diluted with water to 1000 mL and shaked well to obtain the pH 6.8 PBS buffer) were investigated. The specific method: excessive main drug (about 1.5 g) was added to 10 mL of the above four media, respectively; the resulting mixture was placed in a SHA-B multifunctional water bath constant temperature shaker (manufacturer: Zenith Lab (Jiangsu) Co., Ltd.) at water bath temperature of 37° C. and shaked at a speed of 280 rpm for 72 hours; the solution was filtered through a 0.45 μm nitrocellulose membrane (manufacturer: Tianjin Jinteng Experimental Equipment Co., Ltd.); and the filtrate was measured with a UV-2700 ultraviolet-visible spectrophotometer (manufacturer: Shimadzu, Japan), detection wavelength: 369 nm.

[2] = compared with nitroxoline; in words; cited from earlier work

Whether the sink condition was achieved ([1]; Water) | solubility at 72 h ([1]; aqueous buffer, pH 6.8 PBS buffer) [µg/mL] | Whether the sink condition was achieved ([1]; pH 1.0 hydrochloric acid solution) | Whether the sink condition was achieved ([1]; pH 4.0 buffer) | solubility at 72 h ([1]; pH 4.0 buffer (citric acid / disodium hydrogen phosphate), aqueous buffer, pH 4.0 buffer) [µg/mL] | Whether the sink condition was achieved ([1]; pH 6.8 PBS buffer) | solubility at 72 h ([1]; simulated gastric fluid, pH 1.0 hydrochloric acid solution) [µg/mL] | solubility at 72 h ([1]; Water) [µg/mL] | Compound | water solubility [2]
Yes | 15700 | Yes | No | 430 | Yes | 1540 | 100000 | O=[N+]([O-])c1ccc(O)c2ncccc12 [main drug, 5-nitro-8-hydroxyquinoline L-lysinate monohydrate] | –
– | – | – | – | – | – | – | – | O=[N+]([O-])c1ccc(O)c2ncccc12 [nitroxoline lysinate] | better than that of nitroxoline
